{
  "source": "patent US20220356538A1",
  "about": "“HEPATITIS B VIRUS MUTANTS WITH INCREASED […] CIRCULAR DNA” (The Penn State Research Foundation, priority 2019, published 2022)",
  "key": {"[1]": {"tested_on": "HBV core DNA", "assay": "HBV core DNA synthesis: Southern blot of NC-associated core DNA from transfected cells", "format": "cell-based, Hepatitis B virus", "source_text": "(§1) FIG. 1. Effects of HBc linker mutations on cccDNA levels and NC stability. HBV replication plasmids expressing either the wild type (wt) HBc or indicated linker mutants were transfected into human hepatoma cells (HepG2). HBV DNA associated with NCs (core DNA) (lanes 1-8), or protein-free DNA (PF-DNA) (i.e., those DNA species no longer covalently attached to the viral RT protein and mostly released from NCs) (lanes 9-12) was extracted from the transfected cells and analyzed by Southern blot analysis using a radio-labeled HBV DNA probe. The core DNA shown in lanes 5-8 was extracted following prior treatment of the cell lysate with an exogenous DNase, which removes core DNA that was not protected by the capsid (i.e., from destabilized NCs). RC, rcDNA; CCC, cccDNA; SS, single stranded DNA—a reverse transcription intermediate during the synthesis of rcDNA from pgRNA.\nFIG. 4. HBc linker mutants increased HBV CCC DNA by 2-30 fold. Data are shown for LC (S141T/V148I/V149I), S141A, S141D, S141R, L143A, L143I, E145D, and TT146/147AA (a combination of T146A and T147A; aka T146A/T147A)."}, "[2]": {"tested_on": "HBV cccDNA", "assay": "HBV cccDNA levels: Southern blot of protein-free DNA from HepG2 cells transfected with HBV replication plasmids", "format": "cell-based, Hepatitis B virus", "source_text": "as §1\nFIG. 3. Effects of HBc linker and envelope mutations on cccDNA levels. […] HBV DNA associated with NCs (core DNA; A), or protein-free DNA (PF-DNA; B) (i.e., those DNA species no longer covalently attached to the viral RT protein and mostly released from NCs) was extracted from the transfected cells and analyzed by Southern blot analysis using a radio-labeled HBV DNA probe. […]"}},
  "data": [
    {"substance": "L140A [Mutant L140A]", "values": [
      {"measurement": "HBV core DNA synthesis", "setting": "[1]", "value": "blocked HBV core DNA synthesis"},
      {"measurement": "cccDNA formation", "setting": "[2]", "value": "no cccDNA was made"}
    ]}
  ]
}
